{"source": "paper PMC5413024", "about": "“Mechanistic insights into the more potent effect of KP-54 compared to KP-10 in vivo” (PLoS ONE, 2017)", "key": {"[1]": {"tested_on": "plasma LH levels", "assay": "Study 2: plasma LH after a high dose or multiple i.p. injections of KP-10", "assay_type": "in vivo, mouse", "details": "male mice, single i.p. injection of 1 nmol, mean ± s.e.m., n = 10", "method": "Male mice received a single intraperitoneal (i.p.) injection of 100 μl of PBS (vehicle control), KP-10 (1 nmol), KP-10 (10 nmol), KP-54 (1 nmol) or a series of six i.p. injections (every 10 minutes over one hour) of KP-10 (1 nmol) to extend the duration of action of KP-10. 100 μl of blood was collected from a tail vein 10 min after the final injection and the mice were killed 2 hours after treatment by an injection of pentobarbital (100mg/kg i.p.). Blood was collected from the vena cava, mixed with 5 μl EDTA, centrifuged at 10,000 x g for 10 min at 4°C to obtain the plasma fraction, and stored at -20°C until assayed.\n(§1) 3–5 month old wild-type (129S6/SvEv) male mice were used in this study. The mice were housed in open cages on a 12 hour light cycle (lights on at 0700 h) at a controlled temperature (22°C), and were provided with food and water ad libitum. All experiments were performed under the authority of a United Kingdom Home Office Project License and were approved by a Cambridge Animal Ethics Committee.\nPlasma LH was assayed using a commercial ELISA kit (LH Ultrasensitive Rodent ELISA, Endocrine Technologies Cat Number ERK 7010+) with a sensitivity of 0.3 ng/ml and 7% intra-assay and 10% inter-assay coefficients of variation. […]"}, "[2]": {"tested_on": "c-FOS in GnRH neurons", "assay": "Study 3: c-FOS activation in GnRH neurons after peripheral kisspeptin (dual-label immunohistochemistry, BSA-FITC to define the BBB)", "assay_type": "in vivo, mouse", "details": "male mice", "method": "Induction of expression of the immediate early gene c-Fos is regarded as a marker of neuronal activation. KISS1R activation results in c-FOS induction, which allows identification of the GnRH neurons that are activated by KP. We examined co-localization of c-FOS protein in GnRH neurons by immunohistochemistry 2h after peripheral injection of either KP-10 or KP-54. […] 1 nmol KP-54 was injected first, followed by injection of 100 μl of a 50mg/ml solution of BSA-FITC into the tail vein. The mice were perfused with 4% paraformaldehyde/PBS 2 hrs after KP-54 injection and the brains processed for c-FOS, GnRH and BSA-FITC detection. A negative control for fluorescence was also performed with unconjugated BSA.\nFree-floating, dual-label chromogen immunohistochemistry was undertaken as described previously. Mice were perfused with 4% paraformaldehyde in PBS and the brains removed and post-fixed for 1h in the same fixative. The brains were cut as 40 μm free-floating coronal sections using a vibratome (VT1000S; Leica). […]\nSections were examined using an Axioscope 2 plus microscope (Carl Zeiss) using bright-field or fluorescence microscopy. […] Where appropriate, BSA-FITC was detected by epifluorescence microscopy at an excitation wavelength of 490 nm and an emission wavelength of 525 nm (green). About fifteen successive sections containing GnRH neurons were counted per animal (n = 6 per treatment). […]"}, "[3]": {"assay": "Study 4: pharmacokinetics of plasma kisspeptin after i.p. injection (radioimmunoassay)", "assay_type": "in vivo, mouse", "details": "male mice, 1 nmol i.p.", "method": "Male mice received a single i.p. injection of 1 nmol KP-10 or 1 nmol KP-54. 100 μl of blood was collected from the lateral tail vein from groups of mice (n = 4) for each time point (0, 1 min, 2 min, 5 min, 10 min, 30 min, 60 min and 120 min). Terminal bleeds were collected from the vena cava. Blood was mixed with 5 μl EDTA, centrifuged at 10,000 x g for 10 min at 4°C to obtain the plasma fraction, and stored at -20°C until assayed. Kisspeptin concentrations were measured using an established in house competitive radioimmunoassay (RIA, [5]. Briefly, this RIA uses a sheep polyclonal antibody (GQ2), raised against human KP-54, which cross-reacts with human KP-54, KP-14 and KP-10.\nas §1"}, "[4]": {"details": "from the product data sheets; ref product data sheets (manufacturer); cited from earlier work", "method": "KP-10 [human Metastin (45–54) amide, M-2816] was purchased from Sigma-Aldrich. KP-10 consists of the C-terminal 10-amino acids of KP-54. Human KP-54 was synthesized by the Advanced Biotechnology Centre, Imperial College, London, UK. BSA-FITC was purchased from Sigma (A9771). From the product data sheets, the solubility of KP-10 and KP-54 in water is 1mg/ml. We prepared stock solutions in sterile PBS at 100 μM, which is almost ten times lower than the solubility limit set by the manufacturer. The 100 μM stock solution was diluted in sterile PBS and 100 μl of the working solution was injected to ..."}}, "data": [{"smiles": "CC[C@H](C)[C@H](NC(=O)[C@H](CCC(N)=O)NC(=O)[C@H](CCCNC(=N)N)NC(=O)[C@H](CO)NC(=O)[C@H](Cc1c[nH]cn1)NC(=O)[C@@H]1CCCN1C(=O)[C@H](C)NC(=O)[C@H](CO)NC(=O)[C@H](CC(C)C)NC(=O)CNC(=O)[C@@H]1CCCN1C(=O)[C@H](CCC(N)=O)NC(=O)[C@H](CCC(N)=O)NC(=O)[C@H](CCCNC(=N)N)NC(=O)[C@H](CO)NC(=O)CNC(=O)[C@H](CO)NC(=O)[C@H](CO)NC(=O)[C@H](CCC(=O)O)NC(=O)[C@@H]1CCCN1C(=O)[C@@H]1CCCN1C(=O)[C@@H]1CCCN1C(=O)[C@H](CO)NC(=O)[C@H](CC(C)C)NC(=O)[C@H](CO)NC(=O)[C@@H](NC(=O)CN)[C@@H](C)O)C(=O)N1CCC[C@H]1C(=O)N[C@@H](C)C(=O)N1CCC[C@H]1C(=O)N[C@@H](CCC(N)=O)C(=O)NCC(=O)N[C@@H](C)C(=O)N[C@H](C(=O)N[C@@H](CC(C)C)C(=O)N[C@H](C(=O)N[C@@H](CCC(N)=O)C(=O)N[C@@H](CCCNC(=N)N)C(=O)N[C@@H](CCC(=O)O)C(=O)N[C@@H](CCCCN)C(=O)N[C@@H](CC(=O)O)C(=O)N[C@@H](CC(C)C)C(=O)N1CCC[C@H]1C(=O)N[C@@H](CC(N)=O)C(=O)N[C@@H](Cc1ccc(O)cc1)C(=O)N[C@@H](CC(N)=O)C(=O)N[C@@H](Cc1c[nH]c2ccccc12)C(=O)N[C@@H](CC(N)=O)C(=O)N[C@@H](CO)C(=O)N[C@@H](Cc1ccccc1)C(=O)NCC(=O)N[C@@H](CC(C)C)C(=O)N[C@@H](CCCNC(=N)N)C(=O)N[C@@H](Cc1ccccc1)C(N)=O)C(C)C)C(C)C", "note": "[KP-54]", "values": [{"measurement": "plasma LH level at 2 hrs", "setting": "[1]", "value": "9.62 ± 1.67", "unit": "ng/mL"}, {"measurement": "c-FOS activation of GnRH neurons behind the blood brain barrier (functional surrogate for BBB crossing)", "setting": "[2]; 1 nmol KP-54 plus i.v. BSA-FITC (does not cross the BBB), 2 h, n = 3", "value": "c-FOS-positive GnRH neurons in hypothalamic areas that were negative for BSA-FITC"}, {"measurement": "percentage of GnRH neurons positive for c-FOS (all regions)", "setting": "[2]; 2 h after peripheral injection of 1 nmol, n = 6, vehicle 0.54 ± 0.15%", "value": "22.07 ± 2.96", "unit": "%"}, {"measurement": "level at time molar at 0.5 h", "setting": "[3]; 129S6/SvEv, mouse, plasma, ip, RIA, mean ± SEM, n = 4, read-out: plasma kisspeptin level at 30 min post-injection", "value": "13.2 ± 4.36", "unit": "nM"}, {"measurement": "level at time molar at 1 h", "setting": "[3]; 129S6/SvEv, mouse, plasma, ip, RIA, mean ± SEM, n = 4, read-out: plasma kisspeptin level at 60 min post-injection", "value": "5.03 ± 0.787", "unit": "nM"}, {"measurement": "level at time molar at 2 h", "setting": "[3]; 129S6/SvEv, mouse, plasma, ip, RIA, mean ± SEM, n = 4, read-out: plasma kisspeptin level at 120 min post-injection", "value": "1.19 ± 0.33", "unit": "nM"}, {"measurement": "peak (maximum) plasma kisspeptin level", "setting": "[3]; RIA (GQ2 antibody), mean ± SEM, n = 4 per time point", "value": "12292 ± 2655", "unit": "pmol/L"}, {"measurement": "time of peak plasma kisspeptin level post-injection", "setting": "[3]; RIA, n = 4 per time point", "value": 5, "unit": "min"}, {"measurement": "plasma half-life", "setting": "[3]; estimated from RIA plasma levels, RIA recognises all forms of Kp, may include breakdown products", "value": "around 32 min"}, {"measurement": "fraction of the injected peptide entering the bloodstream after intraperitoneal injection", "setting": "[3]; assuming a total blood volume of approximately 5 ml", "value": "~6", "unit": "%"}, {"measurement": "solubility in water", "setting": "[4]", "value": 1000, "unit": "µg/mL"}]}]}
